Experimental data from patent publication US20260356817A1, “AMINOPYRIMIDINE AND AMINOTRIAZINE DERIVATIVES AS MYC PROTEIN MODULATORS” (Sanford Burnham Prebys Medical Discovery Institute, priority 2022, published 2026).
pIC50: −log10 of the molar value. Read-outs that look alike come from different tables or passages of the source.

Test system: Myc
Experiment: Myc inhibition assay: Myc expression per cell by anti-Myc immunofluorescence, high-content imaging
Assay type: cell-based, human (patient-derived medulloblastoma xenograft cells)
Settings: medulloblastoma PDX cells, 4 h
From the text: To identify Myc inhibitors, cells isolated from patient-derived orthotopic xenografts (PDXs) from patients with Myc-driven medulloblastoma were used. Specifically, PDX cells were propagated by transplantation directly into the cerebellum of immunodeficient (NSG) mice and were never passaged in vitro in order to maintain properties of the tumor from which they were derived. Tumor tissues were isolated from tumor-bearing animals, dissociated into a single-cell suspension, resuspended in serum-free media, and immediately plated in 384 well plates. After overnight recovery, compounds were added to each well, and cells were incubated for 4 hours before being fixed and stained with anti-Myc antibodies and with DAPI to label nuclei. Cells were then analyzed using high-content imaging to determine the levels of Myc expression per cell and IC50 values of the compounds.

[1] = Table 1, read-out: IC50 (Myc inhibition)
[2] = Table 2, read-out: MYC Inhibition IC50

pIC50 [1]	pIC50 [2]	SMILES
5.00 to 6.00	5.00 to 6.00	Cc1cccc(C)c1-c1cccc(Nc2nccc(-c3ccc4[nH]cnc4c3)n2)c1 [Compound 3, 4-(1H-benzo[d]imidazol-5-yl)-N-(2′,6′-dimethyl-[1,1′-biphenyl]-3-yl)pyrimidin-2-amine]
6.00 to 6.70	6.00 to 6.70	Cc1ccccc1-c1cccc(Nc2nccc(-c3ccc4[nH]cnc4c3)n2)c1 [Compound 33, 4-(1H-benzo[d]imidazol-5-yl)-N-(2′-methyl-[1,1′-biphenyl]-3-yl)pyrimidin-2-amine]
5.00 to 6.00	5.00 to 6.00	CCc1ccccc1Nc1nccc(-c2ccc3[nH]cnc3c2)n1 [Compound 80, 4-(1H-benzo[d]imidazol-5-yl)-N-(2-ethylphenyl)pyrimidin-2-amine]
> 6.70	> 6.70	c1ccc(-c2cccc(Nc3nccc(-c4ccc5[nH]cnc5c4)n3)c2)nc1 [Compound 44, 4-(1H-benzo[d]imidazol-5-yl)-N-(3-(pyridin-2-yl)phenyl)pyrimidin-2-amine]
> 6.70	> 6.70	CN(C)S(=O)(=O)c1cccc(Nc2nccc(-c3ccc4[nH]cnc4c3)n2)c1 [Compound 7, 3-((4-(1H-benzo[d]imidazol-5-yl)pyrimidin-2-yl)amino)-N,N-dimethylbenzenesulfonamide]
> 6.70	> 6.70	c1cc(Nc2nccc(-c3ccc4[nH]cnc4c3)n2)cc(-c2nnn[nH]2)c1 [Compound 267, N-(3-(1H-tetrazol-5-yl)phenyl)-4-(1H-benzo[d]imidazol-5-yl)pyrimidin-2-amine]
6.00 to 6.70	6.00 to 6.70	c1ccc2cc(Nc3nccc(-c4ccc5[nH]cnc5c4)n3)ccc2c1 [Compound 55, 4-(1H-benzo[d]imidazol-5-yl)-N-(naphthalen-2-yl)pyrimidin-2-amine]
6.00 to 6.70	6.00 to 6.70	O=S(=O)(Nc1cccc(Nc2nccc(-c3ccc4[nH]cnc4c3)n2)c1)c1ccccc1 [Compound 38, N-(3-((4-(1H-benzo[d]imidazol-5-yl)pyrimidin-2-yl)amino)phenyl)benzenesulfonamide]
5.00 to 6.00	5.00 to 6.00	Cc1ccccc1Nc1nccc(-c2ccc3[nH]cnc3c2)n1 [Compound 51, 4-(1H-benzo[d]imidazol-5-yl)-N-(o-tolyl)pyrimidin-2-amine]
6.00 to 6.70	6.00 to 6.70	Cc1cc(Nc2nccc(-c3ccc4[nH]cnc4c3)n2)ccc1F [Compound 48, 4-(1H-benzo[d]imidazol-5-yl)-N-(4-fluoro-3-methylphenyl)pyrimidin-2-amine]
5.00 to 6.00	5.00 to 6.00	COc1ccccc1Nc1nccc(-c2ccc3[nH]cnc3c2)n1 [Compound 61, 4-(1H-benzo[d]imidazol-5-yl)-N-(2-methoxyphenyl)pyrimidin-2-amine]
6.00 to 6.70	6.00 to 6.70	c1cc(Nc2nccc(-c3ccc4[nH]cnc4c3)n2)cc(N2CCCCC2)c1 [Compound 65, 4-(1H-benzo[d]imidazol-5-yl)-N-(3-(piperidin-1-yl)phenyl)pyrimidin-2-amine]
5.00 to 6.00	5.00 to 6.00	FC(F)(F)c1ccccc1Nc1nccc(-c2ccc3[nH]cnc3c2)n1 [Compound 62, 4-(1H-benzo[d]imidazol-5-yl)-N-(2-(trifluoromethyl)phenyl)pyrimidin-2-amine]

Second part, the compound before the results:

SMILES	pIC50 [1]	pIC50 [2]
Cn1cnc2ccc(-c3ccnc(Nc4cccc(C(F)(F)F)c4)n3)cc21 [Compound 41, 4-(1-methyl-1H-benzo[d]imidazol-6-yl)-N-(3-(trifluoromethyl)phenyl)pyrimidin-2-amine]	> 6.70	> 6.70
Oc1cc(-c2ccnc(Nc3cccc(C(F)(F)F)c3)n2)ccn1 [Compound 241, 4-(2-((3-(trifluoromethyl)phenyl)amino)pyrimidin-4-yl)pyridin-2-ol]	6.00 to 6.70	6.00 to 6.70
Cc1cnc(Nc2cccc(C(F)(F)F)c2)nc1-c1cnc2nc[nH]c2c1 [Compound 113, 4-(1H-imidazo[4,5-b]pyridin-6-yl)-5-methyl-N-(3-(trifluoromethyl)phenyl)pyrimidin-2-amine]	5.00 to 6.00	5.00 to 6.00
Fc1cccc(Nc2nccc(-c3ccc4[nH]nnc4c3)n2)c1 [Compound 138, 4-(1H-benzo[d][1,2,3]triazol-5-yl)-N-(3-fluorophenyl)pyrimidin-2-amine]	5.00 to 6.00	5.00 to 6.00
FC(F)(F)c1cccc(Nc2ncnc(-c3cnc4nc[nH]c4c3)n2)c1 [Compound 105, 4-(1H-Imidazo[4,5-b]pyridin-6-yl)-N-(3-(trifluoromethyl)phenyl)-1,3,5-triazin-2-amine]	> 6.70	> 6.70
Oc1cc(-c2ccnc(Nc3ccncc3)n2)ccn1 [Compound 190, 4-(2-(pyridin-4-ylamino)pyrimidin-4-yl)pyridin-2-ol]	5.00 to 6.00	5.00 to 6.00
Oc1cccc(-c2ccnc(Nc3ccccc3)n2)c1 [Compound 244, 3-(2-(phenylamino)pyrimidin-4-yl)phenol]	5.00 to 6.00	5.00 to 6.00
Oc1cc(-c2ccnc(Sc3ccccc3)n2)ccn1 [Compound 231, 4-(2-(phenylthio)pyrimidin-4-yl)pyridin-2-ol]	4.00 to 5.00	4.00 to 5.00
Oc1cc(-c2ccnc(Nc3cccc(C(F)(F)F)c3)n2)ncn1 [Compound 131, 2′-((3-(trifluoromethyl)phenyl)amino)-[4,4′-bipyrimidin]-6-ol]	5.00 to 6.00	5.00 to 6.00
CN(c1ccccc1)c1ncnc(-c2ccnc(O)c2)n1 [Compound 215, 4-(4-(methyl(phenyl)amino)-1,3,5-triazin-2-yl)pyridin-2-ol]	4.00 to 5.00	4.00 to 5.00
COc1cccc(-c2ccnc(Nc3ccccc3OC)n2)c1 [Compound 248, N-(2-methoxyphenyl)-4-(3-methoxyphenyl)pyrimidin-2-amine]	4.00 to 5.00	4.00 to 5.00
COc1cc(-c2ccnc(Nc3cncc(C(F)(F)F)c3)n2)ccn1 [Compound 155, 4-(2-methoxypyridin-4-yl)-N-(5-(trifluoromethyl)pyridin-3-yl)pyrimidin-2-amine]	4.00 to 5.00	4.00 to 5.00
FC(F)(F)c1cncc(Nc2nccc(-c3cnc4nc[nH]c4c3)n2)c1 [Compound 106, 4-(1H-imidazo[4,5-b]pyridin-6-yl)-N-(5-(trifluoromethyl)pyridin-3-yl)pyrimidin-2-amine]	> 6.70	> 6.70
Fc1cccc(Nc2nccc(-c3ccc4ocnc4c3)n2)c1 [Compound 271, 4-(benzo[d]oxazol-5-yl)-N-(3-fluorophenyl)pyrimidin-2-amine]	5.00 to 6.00	5.00 to 6.00
O=C(c1cccc(Nc2nccc(-c3ccc4[nH]cnc4c3)n2)c1)N1CCOCC1 [Compound 11, (3-((4-(1H-benzo[d]imidazol-5-yl)pyrimidin-2-yl)amino)phenyl)(morpholino)methanone]	6.00 to 6.70	6.00 to 6.70
Oc1cccc(-c2ccnc(Nc3cccc(C(F)(F)F)c3)n2)c1 [Compound 173, 3-(2-((3-(trifluoromethyl)phenyl)amino)pyrimidin-4-yl)phenol]	4.00 to 5.00	4.00 to 5.00
Cc1nc2ccc(-c3ccnc(Nc4cccc(C(F)(F)F)c4)n3)cc2[nH]1 [Compound 142, 4-(2-Methyl-1H-benzo[d]imidazol-6-yl)-N-(3-(trifluoromethyl)phenyl)pyrimidin-2-amine]	6.00 to 6.70	6.00 to 6.70
COc1cc(-c2ccnc(Nc3cc(F)cc(F)c3)n2)ccn1 [Compound 148, N-(3,5-difluorophenyl)-4-(2-methoxypyridin-4-yl)pyrimidin-2-amine]	5.00 to 6.00	5.00 to 6.00
COc1cccc(-c2cccc(Nc3ccccc3)n2)c1 [Compound 245, 6-(3-Methoxyphenyl)-N-phenylpyridin-2-amine]	4.00 to 5.00	4.00 to 5.00
COc1ccc(Oc2ccnc(Nc3cccc(F)c3)n2)cn1 [Compound 124]	4.00 to 5.00	4.00 to 5.00
FC(F)(F)c1cccc(Nc2nccc(-c3ccc4[nH]ccc4c3)n2)c1 [Compound 152, 4-(1H-indol-5-yl)-N-(3-(trifluoromethyl)phenyl)pyrimidin-2-amine]	5.00 to 6.00	5.00 to 6.00
CCc1cccc(Nc2nccc(-c3cnc4nc[nH]c4c3)n2)c1 [Compound 140, N-(3-ethylphenyl)-4-(1H-imidazo[4,5-b]pyridin-6-yl)pyrimidin-2-amine]	> 6.70	> 6.70
Oc1cc(-c2ccnc(Nc3cncnc3)n2)ccn1 [Compound 178, 4-(2-(pyrimidin-5-ylamino)pyrimidin-4-yl)pyridin-2-ol]	4.00 to 5.00	4.00 to 5.00
COc1cc(-c2ccnc(Nc3cccc(C(F)(F)F)n3)n2)ccn1 [Compound 168, 4-(2-methoxypyridin-4-yl)-N-(6-(trifluoromethyl)pyridin-2-yl)pyrimidin-2-amine]	4.00 to 5.00	4.00 to 5.00
Oc1cc(-c2ccnc(Nc3ccccn3)n2)ccn1 [Compound 186, 4-(2-(pyridin-2-ylamino)pyrimidin-4-yl)pyridin-2-ol]	4.00 to 5.00	4.00 to 5.00
Oc1cncc(-c2ccnc(Nc3cccc(F)c3)n2)c1 [Compound 200, 5-(2-((3-fluorophenyl)amino)pyrimidin-4-yl)pyridin-3-ol]	5.00 to 6.00	5.00 to 6.00
COc1cncc(-c2ccnc(Nc3cccc(C(F)(F)F)c3)n2)c1 [Compound 204, 4-(5-methoxypyridin-3-yl)-N-(3-(trifluoromethyl)phenyl)pyrimidin-2-amine]	6.00 to 6.70	6.00 to 6.70
COc1cc(-c2ccnc(Nc3ncccn3)n2)ccn1 [Compound 195, 4-(2-methoxypyridin-4-yl)-N-(pyrimidin-2-yl)pyrimidin-2-amine]	4.00 to 5.00	4.00 to 5.00
